Test results as given in patent publication US8455014B2, “Composition comprising Trachelospermi caulis and Pyrola japonica extracts for the treatment and prevention of inflammatory diseases” (Sinil Pharmaceutical Co., Ltd., priority 2007, dated 2013).

Tests used:
[1] = system: vascular permeability induced by acetic acid; experiment: Acetic acid-induced vascular permeability in mice; assay type: in vivo, ICR mice; conditions: Evans blue in abdominal cavity, OD 630 nm
Procedure: The inhibitory effect of the mixed herbal extract obtained in the above reference example 3 against vascular permeability was investigated.
Seven week old ICR mice were separated into each experimental group, orally administered with Trachelospermi caulis extract at a concentration of 20 mg/kg and 200 mg/kg, respectively, Pyrola japonica extract at a concentration of 20 mg/kg and 200 mg/kg, respectively, and a mixed […], respectively, after dissolving them in distilled water to a concentration of 0.1 mL/10 g b.wt., by using a sonde.
The dosage volume was determined based on the body weight measured on the day of experiment and the control group was only administered with distilled water, a preparation solvent, at a concentration of 0.1 mL/10 g b.wt. Phenylbutazone was orally administered with a dosage of 50 mg/kg b.wt. after suspending it in 0.5% methyl cellulose.
ICR male mice, which were fasted for 12 hours prior to the experiment, were administered with a test substance according to the method of Whittle (1964). […] The washing solution was collected from the abdominal cavity and then centrifuged at 2,000 rpm for 10 minutes and the supernatant was measured of its optical density at 630 nm by using a spectrophotometer to calculate the amount of Evan's blue solution flowed into the abdominal cavity. […]

[2] = system: TNF-α; conditions: Int Immunopharmacol. 2004; 4(10-11):1419-29; cited from earlier work
[3] = system: NF-κB; conditions: human keratinocytes; J Dermatol Sci. 2003; 31(3):193-201; cited from earlier work

COc1ccc2c(c1)c(CC(=O)O)c(C)n2C(=O)c1ccc(Cl)cc1 [indomethacin]
Leakage of dye ([1]; 1 mg/kg): 36.3 ± 2.67 μg/10 g b. wt.

CCCCC1C(=O)N(c2ccccc2)N(c2ccccc2)C1=O [phenylbutazone]
Leakage of dye ([1]; 50 mg/kg oral): 39.0 ± 3.45 μg/10 g b. wt.

COc1cc(C[C@H]2C(=O)OC[C@@H]2Cc2ccc(OC)c(OC)c2)ccc1O [arctigenin]
TNF-α inhibitory activity [2]: TNF-α inhibitory activity

OC[C@H]1O[C@@H](Oc2ccc(O)cc2)[C@H](O)[C@@H](O)[C@@H]1O [Arbutin]
activity of NF-κB [3]: inhibit the activity of NF-κB

COc1ccc(C[C@H]2COC(=O)[C@@H]2Cc2ccc(O[C@@H]3O[C@H](CO)[C@@H](O)[C@H](O)[C@H]3O)c(OC)c2)cc1OC [arctiin]
TNF-α inhibitory activity [2]: TNF-α inhibitory activity
